In the supplement of paper PMC10307832:

Tests used:
Assay in all cases: relative viability (nuclei count vs DMSO), 5 days (fraction); higher = more cells survive
Palbociclib + Olaparib = compound: CC(=O)c1c(C)c2cnc(Nc3ccc(N4CCNCC4)cn3)nc2n(C2CCCC2)c1=O [Palbociclib] + O=C(c1cc(Cc2n[nH]c(=O)c3ccccc23)ccc1F)N1CCN(C(=O)C2CC2)CC1 [Olaparib] (partner 8 µM)
In short: (§1)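 Lung cancer cell lines were seeded in 1536-well plates and dosed by pin tool the next day, with either a single drug or a fixed anchor-drug dose combined with five library-drug doses (not always all listed) spaced in √10 steps. Five days later, one step fixed the cells and stained their nuclei (final 0.05% Triton X-100, 1% formaldehyde, 1 ug/ml Hoechst), and nuclei were counted on 4× images. Relative viability is the nuclei count in treated wells divided by the count in vehicle wells, and each value is the median of duplicate plates.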

Palbociclib + Pemetrexed = compound: CC(=O)c1c(C)c2cnc(Nc3ccc(N4CCNCC4)cn3)nc2n(C2CCCC2)c1=O [Palbociclib] + Nc1nc2[nH]cc(CCc3ccc(C(=O)N[C@@H](CCC(=O)O)C(=O)O)cc3)c2c(=O)[nH]1 [Pemetrexed] (partner 0.2 µM)
In short: as §1

Palbociclib + OSI-027 = compound: CC(=O)c1c(C)c2cnc(Nc3ccc(N4CCNCC4)cn3)nc2n(C2CCCC2)c1=O [Palbociclib] + COc1cccc2cc(-c3nc([C@H]4CC[C@H](C(=O)O)CC4)n4ncnc(N)c34)[nH]c12 [OSI-027] (partner 0.5 µM)
In short: as §1

Palbociclib + Linsitinib = compound: CC(=O)c1c(C)c2cnc(Nc3ccc(N4CCNCC4)cn3)nc2n(C2CCCC2)c1=O [Palbociclib] + C[C@]1(O)C[C@@H](c2nc(-c3ccc4ccc(-c5ccccc5)nc4c3)c3c(N)nccn32)C1 [Linsitinib] (partner 1 µM)
In short: as §1

Row | Cell Line | relative viability (Palbociclib + Olaparib; first compound 0.01 µM) | relative viability (Palbociclib + Olaparib; first compound 0.1 µM) | relative viability (Palbociclib + Olaparib; first compound 0.3162 µM) | relative viability (Palbociclib + Olaparib; first compound 1 µM) | relative viability (Palbociclib + Pemetrexed; first compound 0.01 µM) | relative viability (Palbociclib + Pemetrexed; first compound 0.1 µM) | relative viability (Palbociclib + Pemetrexed; first compound 0.3162 µM) | relative viability (Palbociclib + Pemetrexed; first compound 1 µM) | relative viability (Palbociclib + OSI-027; first compound 0.01 µM) | relative viability (Palbociclib + OSI-027; first compound 0.1 µM) | relative viability (Palbociclib + OSI-027; first compound 0.3162 µM) | relative viability (Palbociclib + OSI-027; first compound 1 µM) | relative viability (Palbociclib + Linsitinib; first compound 0.01 µM) | relative viability (Palbociclib + Linsitinib; first compound 0.1 µM) | relative viability (Palbociclib + Linsitinib; first compound 0.3162 µM) | relative viability (Palbociclib + Linsitinib; first compound 1 µM) | relative viability (Palbociclib + Olaparib; first compound 0.03162 µM) | relative viability (Palbociclib + Pemetrexed; first compound 0.03162 µM) | relative viability (Palbociclib + OSI-027; first compound 0.03162 µM) | relative viability (Palbociclib + Linsitinib; first compound 0.03162 µM)
1 | HCC-15 | 0.788 | 0.626 | 0.651 | 0.598 | 0.217 | 0.246 | 0.247 | 0.227 | 0.677 | 0.549 | 0.54 | 0.426 | 0.966 | 0.832 | 0.755 | 0.726 |  |  |  | 
2 | HCC-44 | 0.945 | 1 | 0.965 | 1.01 | 0.626 | 0.592 | 0.634 | 0.666 | 0.487 | 0.512 | 0.582 | 0.482 | 0.661 | 0.691 | 0.679 | 0.661 | 0.952 | 0.63 | 0.492 | 0.648
3 | HCC-78 | 1.05 | 0.695 | 0.636 | 0.369 | 0.894 | 0.935 | 0.942 | 0.943 | 0.424 | 0.315 | 0.319 | 0.254 | 0.46 | 0.302 | 0.39 | 0.273 | 0.661 | 0.88 | 0.382 | 0.329
4 | HCC-366 | 0.376 | 0.384 | 0.335 | 0.215 | 0.155 | 0.162 | 0.138 | 0.155 | 0.916 | 0.722 | 0.731 | 0.482 | 0.482 | 0.506 | 0.494 | 0.344 |  |  |  | 
5 | HCC-827 | 0.62 | 0.477 | 0.563 | 0.443 | 0.228 | 0.257 | 0.261 | 0.243 | 0.809 | 0.707 | 0.563 | 0.479 | 0.945 | 0.88 | 0.885 | 0.71 | 0.573 | 0.251 | 0.52 | 0.879
6 | HOP-62 | 0.319 | 0.618 | 0.399 | 0.452 | 0.281 | 0.306 | 0.252 | 0.269 | 0.793 | 0.697 | 0.624 | 0.446 | 0.995 | 1.01 | 0.908 | 0.692 |  |  |  | 
7 | IA-LM | 0.755 | 0.548 | 0.474 | 0.268 |  |  |  |  |  |  |  |  | 0.492 | 0.395 | 0.221 | 0.118 | 0.643 |  |  | 0.399
8 | LC-2-ad | 0.744 | 0.688 | 0.642 | 0.553 | 0.271 | 0.318 | 0.392 | 0.363 | 0.746 | 0.604 | 0.625 | 0.474 | 0.884 | 0.735 | 0.611 | 0.395 | 0.71 | 0.289 |  | 
9 | NCI-H727 | 0.738 | 0.699 | 0.728 | 0.568 |  |  |  |  | 0.468 | 0.367 | 0.494 | 0.438 | 0.226 | 0.283 | 0.289 | 0.282 | 0.728 |  | 0.477 | 0.285
10 | NCI-H1299 | 0.925 | 0.886 | 0.79 | 0.65 |  |  |  |  |  |  |  |  | 0.961 | 0.908 | 0.866 | 0.685 | 0.924 |  |  | 0.983
11 | NCI-H1563 |  |  |  |  | 0.836 | 0.746 | 0.795 | 0.629 | 0.75 | 0.74 | 0.735 | 0.534 | 1.19 | 1.15 | 1 | 0.887 |  | 0.729 | 0.776 | 1.25
12 | NCI-H1648 | 0.679 | 0.518 | 0.587 | 0.37 | 0.76 | 0.562 | 0.582 | 0.411 | 0.264 | 0.256 | 0.27 | 0.251 |  |  |  |  | 0.71 | 0.549 |  | 
13 | NCI-H1650 | 0.795 | 0.551 | 0.642 | 0.513 | 0.373 | 0.302 | 0.293 | 0.231 | 0.701 | 0.522 | 0.481 | 0.403 |  |  |  |  | 0.562 | 0.316 | 0.404 | 
14 | NCI-H1703 | 0.417 | 0.293 | 0.199 | 0.203 |  |  |  |  |  |  |  |  | 1.11 | 0.673 | 0.617 | 0.323 | 0.339 |  |  | 0.64
15 | NCI-H2170 | 0.675 | 0.551 | 0.488 | 0.436 | 0.269 | 0.224 | 0.242 | 0.222 | 0.72 | 0.61 | 0.638 | 0.407 |  |  |  |  | 0.61 | 0.277 | 0.642 | 
16 | NCI-H2342 | 0.497 | 0.375 | 0.422 | 0.419 | 0.766 | 0.861 | 0.747 | 0.556 | 0.575 | 0.566 | 0.549 | 0.433 |  |  |  |  | 0.504 | 0.691 | 0.546 | 
17 | SW 900 | 0.914 | 0.975 | 0.865 | 0.725 | 0.46 | 0.528 | 0.51 | 0.422 | 0.582 | 0.399 | 0.322 | 0.358 |  |  |  |  |  |  |  | 
